{"source": "patent US20060052319A9", "about": "“Sensitization of cells to cytotoxic agents using oligonucleotides directed to nucleotide excision repair or transcritpion coupled repair genes” (priority 2000, published 2006)", "key": {"XPA mRNA": {"test_system": "XPA mRNA", "assay": "RT-PCR analysis of XPA mRNA levels after oligonucleotide transfection", "format": "cell-based", "conditions": "A2780/CP70 cells, 200 nM oligonucleotide with lipofectin, FIG. 3", "experimental": "(§1) Total RNA was isolated from 2×10^6 cells using a total RNA isolation kit (S.N.A.P., Invitrogen, Carlsbad, Calif.) as instructed and was quantitated spectrophotometrically via absorbance at 260 nm. RT-PCR analysis was performed using the Superscript One-Step RT-PCR System (Life Technologies, Rockville, Md.). Ten ng samples of total RNA were used for RT-PCR analyses because it was determined that quantities of RT-PCR products derived from XPA and CSB mRNA varied in a linear fashion when RT-PCR was performed on total RNA samples of 1-50 ng. For CSB, primers: […]\n(§2) were selected to amplify a 235-bp segment.\n(§3) RT-PCR amplification was performed for 40 cycles to detect low mRNA levels while remaining in the linear range of PCR. Aliquots of amplified DNA were resolved via 1.5% agarose gel electrophoresis and visualized by ethidium bromide staining."}, "[1]": {"test_system": "A2780/CP70 ovarian carcinoma cells", "assay": "MTS cell proliferation assay, sensitization to cisplatin or oxaliplatin after oligonucleotide transfection", "conditions": "for reduction of the ID50 of cisplatin / reduction of the ID50 of oxaliplatin / sensitivity of the cells to cisplatin or oxaliplatin (cytotoxicity of both platinum agents): A2780/CP70 cells transfected with oligonucleotide, three days in drug, MTS assay; for potentiation of cisplatin or oxaliplatin, dose response curves normalized to HYB 1019-transfected cells: A2780/CP70 cells, normalized to control oligonucleotide", "protocol": "(§8) The oligonucleotides targeting CSB (969 and 971) were tested for their ability to sensitize A2780/CP70 cells to cisplatin or oxaliplatin. Cells were transfected with oligonucleotides and 24 hours later were replated on 96 well plates. After culturing in the presence of drug for another three days, cell viability was assessed by the MTS assay.\n(§9) Delivery of oligonucleotides into A2780/CP70 cells for RT-PCR and cell proliferation assays was achieved using Lipofectin (Life Technologies, Rockville, Md.) as per the manufacturer's procedure. The final concentration of oligonucleotides was 200 nM and final concentration of lipofectin was 10 μg/ml. After 4 hours incubation with the lipofectin-oligonucleotides mixture, cells were replaced with normal culture medium and treated as indicated for subsequent assays.\n(§10) For A2780/CP70 cells transfected with oligonucleotides or mismatched controls, cells were harvested via trypsinization 16-24 hrs after transfection and transferred to 96 well plates at 5×10^3 cells per well. […] Twenty-four hours after transfer, cells in quadruplicate wells were treated with cisplatin (Sigma, St. Louis, Mo.) in 2 mM phosphate buffered saline (PBS) or oxaliplatin National Cancer Institute) in 4 mM PBS at serial dilutions in culture medium or with no drug and maintained for three more days. Cell survival was quantitated using the CellTiter 96 Non-radioactive Cell Proliferation Assay (Promega, Madison, Wis.). […] A Trypan blue exclusion assay was also performed to verify that the values obtained via the cell titer assay correlated to numbers of viable cells. Readings from quadruplicate wells were averaged, normalized with respect to readings obtained from cells unexposed to drug, and are presented +/− standard deviation. Statistical significance was assessed via ANOVA (one-way followed by Dunnett's multiple comparison test) using the Prism software package (GraphPad, Inc. San Diego, Calif.). P values reported are for the multiple comparison test."}, "A2780/CP70 cells": {"test_system": "A2780/CP70 cells", "assay": "Growth in soft agar (colony) assay with cisplatin or oxaliplatin", "format": "cell-based", "conditions": "in the presence of either cisplatin or oxaliplatin, colonies counted 10 days later", "experimental": "An alternative method for assessing the ability of oligonucleotides to inhibit tumor cell proliferation was also utilized. In this method, the transfected cells were transferred to soft agar containing various concentrations of oxaliplatin or cisplatin. Resulting colonies were counted 10 days later.\nFor growth in soft agar assay, cells transfected the previous day with oligonucleotides as described above were suspended (10^4 cells/well) in 0.5 ml of 0.3% Difco Noble agar (Becton Dickinson & Co. Microbiology Systems, Sparks, Md.) supplemented with complete culture medium and layered over 0.5 ml of 0.8% agar-medium in chambers of 24 well plates. Drug was added (day 0) and colonies counted ten days later after staining with nitroblue tetrazolium (Sigma, St. Louis, Mo.) as previously described (Rockx, et al. (2000) Proc. Nat. Acad. Sci. (USA) 97:10503-8). For this assay, statistical comparison was via paired t-test."}, "CSB mRNA": {"test_system": "CSB mRNA", "assay": "RT-PCR analysis of CSB mRNA levels after oligonucleotide transfection", "format": "cell-based", "conditions": "A2780/CP70 cells, 200 nM oligonucleotide with lipofectin, FIG. 3", "experimental": "as §1, §2, §3"}, "[2]": {"test_system": "A2780/CP70 ovarian carcinoma cells", "assay": "MTS cell proliferation assay, sensitization to oxidizing agents (hydrogen peroxide, gamma radiation)", "format": "cell-based", "conditions": "MTS assay after three days of growth; for sensitivity of cells to hydrogen peroxide: FIG. 7A; for sensitivity of cells to gamma radiation: FIG. 7B", "excerpt": "(§4) FIG. 7A is a graphic representation showing that oligonucleotides targeting CSB mRNA sensitize ovarian carcinoma cells to oxidative damage. A2780/CP70 ovarian carcinoma cells were transfected with oligonucleotides HYB 971 (SEQ ID NO:2) targeting CSB mRNA or control antisense oligonucleotide (HYB 1019) (SEQ ID NO:5) and then transferred to 96-well dishes for exposure to hydrogen peroxide at the indicated concentrations, followed by three days of growth in normal medium and subsequent assessment of cell proliferation via MTS assay.\nas §4, with “7B” for “7A”, “gamma radiation” for “hydrogen peroxide”, “doses” for “concentrations,”\n(§5) The cisplatin-resistant ovarian carcinoma cell line A2780/CP70 was maintained in RPMI-1640 medium supplemented with 10% fetal bovine serum, 1× penicillin -streptomycin-neomycin (PSN) (Gibco, Rockville, Md.) 2 mM L-glutamine and 0.2 units/ml insulin (Novo Nordisk Pharmaceuticals, Princeton, N.J.) at 37_C under a humidified 5% CO2 atmosphere. SV40-immortalized CS-B fibroblasts stably transfected with pCSB or control construct (generously provided by Dr. J. Hoeijmakers, Erasmus University, Rotterdam, Netherlands were maintained as previously described (Troelstra et al. (1992) Cell 71:939-953). SV40-immortalized CS-A cell lines (CS3BE.S3.G1+pDR2 and CS3BE.S3.G1+pDR2-CSA), were also maintained as described by Henning et al. (1995) Cell 82:555-564. DNA repair competent (GM 5659C), XP-A (GM2009), and XP-G (GM3021) fibroblasts were obtained from the National Institute of General Medical Sciences Human Genetic Mutant Cell Repository (Camden, N.J.) and maintained as described by Ratner et al. (1998) J. Biolog. Chem. 273:5184-5189. Gamma radiation was administered to cells in a 96 well plate with a Gamma Cell-40 Irradiator (Nordion International, Canada) while the 96 well plate was on ice.\n(§6) P values reported are for the multiple comparison test."}, "[3]": {"test_system": "A2780/CP70 ovarian carcinoma cells", "assay": "Plate assay of cell proliferation in the absence of added drug (cell number by hemacytometer)", "format": "cell-based", "conditions": "absence of any other anti-cancer agents, two days in culture", "experimental": "FIG. 8 is a graphic representation showing that anti-CSB oligonucleotides retard cell proliferation in the absence of cytotoxic agents. A2780/CP70 ovarian carcinoma cells were transfected with indicated oligonucleotides and maintained in culture media for two more days to assess cell proliferation rate.\nA plate assay was also performed in the absence of added drug. Cells treated with oligonucleotides or mismatched controls were maintained in culture for two days. Cells were then trypsinized and cell number was determined using a hemacytometer. Numbers from three independent experiments were averaged and standard deviation was calculated. Statistical comparison was via paired t-test."}, "[4]": {"test_system": "A2780/CP70 ovarian carcinoma cells", "protocol": "as §8, §9, §10"}, "[5]": {"test_system": "Immortalized CS-A fibroblasts", "assay": "MTS proliferation assay of CS-A fibroblasts versus CSA-restored fibroblasts", "format": "cell-based", "conditions": "3 days drug exposure", "experimental": "as §5, §6"}, "[6]": {"test_system": "Immortalized CS-B fibroblasts", "assay": "MTS proliferation assay of CS-B fibroblasts versus CSB-restored fibroblasts", "format": "cell-based", "conditions": "3 days drug exposure", "experimental": "as §5, §6"}, "XP-A fibroblasts": {"test_system": "XP-A fibroblasts", "assay": "MTS proliferation assay of XP-A fibroblasts versus NER proficient 5659C fibroblasts", "format": "cell-based, human", "experimental": "(§7) Primary fibroblasts from XPA, XPG, or repair-competent individuals were exposed to oxaliplatin and assayed as described in FIGS. 1A-D.\nas §5, §6"}, "XP-G fibroblasts": {"test_system": "XP-G fibroblasts", "assay": "MTS proliferation assay of XP-G fibroblasts versus NER proficient 5659C fibroblasts", "format": "cell-based, human", "experimental": "as §7, §5, §6"}}, "note": "Read-outs that look alike come from different tables or passages of the source.", "data": [{"compound": "5′(590)-d(CCAAACCTGCACGATACATC)-3′ [HYB 1040, reference compound]", "values": [{"measurement": "XPA mRNA levels", "setting": "XPA mRNA", "result": "did not reduce the level of XPA mRNA"}]}, {"compound": "5′(750)-d(GGTCCATACTCATGTTGATG)-3′ (DNA, backbone and methylation of C not given here) [HYB 963]", "values": [{"measurement": "XPA mRNA levels", "setting": "XPA mRNA", "result": "reduce XPA mRNA levels"}, {"measurement": "reduction of the ID50 of cisplatin", "setting": "[1]", "result": "about 25%"}, {"measurement": "reduction of the ID50 of oxaliplatin", "setting": "[1]", "result": "about 25%"}, {"measurement": "sensitivity of the cells to cisplatin or oxaliplatin (cytotoxicity of both platinum agents)", "setting": "[1]", "result": "increase the sensitivity"}]}, {"compound": "5′(1110)-d(CTGACCTACCACTTCTGCAC)-3′ [HYB 964]", "values": [{"measurement": "XPA mRNA levels", "setting": "XPA mRNA", "result": "reduce XPA mRNA levels"}, {"measurement": "fewer colonies than control HYB 1040 or lipofectin-only (sham) transfected cells", "setting": "A2780/CP70 cells", "result": "about 50%"}, {"measurement": "reduction of the ID50 of cisplatin", "setting": "[1]", "result": "about 25%"}, {"measurement": "reduction of the ID50 of oxaliplatin", "setting": "[1]", "result": "about 25%"}, {"measurement": "sensitivity of the cells to cisplatin or oxaliplatin (cytotoxicity of both platinum agents)", "setting": "[1]", "result": "increase the sensitivity"}]}, {"compound": "5′(1612)-d(GCTACATAAGACCAGTGTGC)-3′ (DNA, backbone and methylation of C not given here) [HYB 1019, reference compound]", "values": [{"measurement": "CSB mRNA levels", "setting": "CSB mRNA", "result": "did not reduce the level of CSB mRNA"}, {"measurement": "sensitivity of the cells to cisplatin or oxaliplatin (cytotoxicity of both platinum agents)", "setting": "[1]", "result": "did not alter the sensitivity"}]}, {"compound": "5′(2037)-d(GGTGACAGCAGCATTTGGAT)-3′ (DNA, backbone not given here) [HYB 969]", "values": [{"measurement": "reduction of CSB mRNA levels", "setting": "CSB mRNA", "result": "about 50%"}, {"measurement": "sensitivity of cells to hydrogen peroxide", "setting": "[2]", "result": "significantly increased the sensitivity"}, {"measurement": "sensitivity of cells to gamma radiation", "setting": "[2]", "result": "significantly increased the sensitivity"}, {"measurement": "reduction of proliferation compared to control oligonucleotide (HYB 1019) or sham transfected cells", "setting": "[3]", "result": "about 50%"}, {"measurement": "sensitivity of the cells to cisplatin or oxaliplatin (cytotoxicity of both platinum agents)", "setting": "[4]", "result": "substantially enhanced the cytotoxicity"}, {"measurement": "reduction of the ID50 of cisplatin", "setting": "[1]", "result": 70, "unit": "%"}, {"measurement": "reduction of the ID50 of oxaliplatin", "setting": "[1]", "result": 50, "unit": "%"}, {"measurement": "potentiation of cisplatin or oxaliplatin, dose response curves normalized to HYB 1019-transfected cells", "setting": "[1]", "result": "robust potentiation"}]}, {"compound": "5′-(3212)-d(GGAACATCATGGTCTGCTCC)-3′ [HYB 971]", "values": [{"measurement": "reduction of CSB mRNA levels", "setting": "CSB mRNA", "result": "about 50%"}, {"measurement": "sensitivity of cells to hydrogen peroxide", "setting": "[2]", "result": "significantly increased the sensitivity"}, {"measurement": "sensitivity of cells to gamma radiation", "setting": "[2]", "result": "significantly increased the sensitivity"}, {"measurement": "reduction of proliferation compared to control oligonucleotide (HYB 1019) or sham transfected cells", "setting": "[3]", "result": "about 50%"}, {"measurement": "reduction of the ID50 of cisplatin", "setting": "[1]", "result": 70, "unit": "%"}, {"measurement": "reduction of the ID50 of oxaliplatin", "setting": "[1]", "result": 50, "unit": "%"}, {"measurement": "sensitivity of the cells to cisplatin or oxaliplatin (cytotoxicity of both platinum agents)", "setting": "[1]", "result": "substantially enhanced the cytotoxicity"}, {"measurement": "potentiation of cisplatin or oxaliplatin, dose response curves normalized to HYB 1019-transfected cells", "setting": "[1]", "result": "robust potentiation"}]}, {"compound": "O=C([O-])C(=O)[O-].[NH-][C@@H]1CCCC[C@H]1[NH-].[Pt+4]", "note": "(relative stereo) [oxaliplatin, Cis [(1R, 2R) 1,2-cyclohexanediamine-N,N′ oxalato (2-)-O,O′] platinum]", "values": [{"measurement": "sensitivity of fibroblasts lacking functional CSA gene product versus restored WT", "setting": "[5]", "result": "significantly more sensitive"}, {"measurement": "sensitivity of fibroblasts lacking functional CSB gene product versus restored WT", "setting": "[6]", "result": "significantly more sensitive"}, {"measurement": "sensitivity of XP-A fibroblasts versus NER proficient 5659C fibroblasts", "setting": "XP-A fibroblasts", "result": "significantly more sensitive"}, {"measurement": "sensitivity of XP-G fibroblasts versus NER proficient 5659C fibroblasts", "setting": "XP-G fibroblasts", "result": "significantly more sensitive"}]}, {"compound": "N.N.[Cl][Pt][Cl]", "note": "[cisplatin, CIS-diamminedichloroplatinum]", "values": [{"measurement": "sensitivity of fibroblasts lacking functional CSA gene product versus restored WT", "setting": "[5]", "result": "significantly more sensitive"}, {"measurement": "sensitivity of fibroblasts lacking functional CSB gene product versus restored WT", "setting": "[6]", "result": "significantly more sensitive"}, {"measurement": "sensitivity of XP-A fibroblasts versus NER proficient 5659C fibroblasts", "setting": "XP-A fibroblasts", "result": "significantly more sensitive"}, {"measurement": "sensitivity of XP-G fibroblasts versus NER proficient 5659C fibroblasts", "setting": "XP-G fibroblasts", "result": "significantly more sensitive"}]}]}
